Key:
[1] = test system: PS1 fibroblasts; assay: Phospholipid accumulation by LipidTOX; type: cell-based, human; settings: 10 μM, 24 h
[2] = biological target: T1, secretory ASM (Homo sapiens, UniProt P17405); assay: Secretory ASM activity in PS1-derived supernatant medium; type: biochemical; settings: P-sup, assay buffer with zinc, 10 μM, 1 h
T1 sequence (P17405 47-631): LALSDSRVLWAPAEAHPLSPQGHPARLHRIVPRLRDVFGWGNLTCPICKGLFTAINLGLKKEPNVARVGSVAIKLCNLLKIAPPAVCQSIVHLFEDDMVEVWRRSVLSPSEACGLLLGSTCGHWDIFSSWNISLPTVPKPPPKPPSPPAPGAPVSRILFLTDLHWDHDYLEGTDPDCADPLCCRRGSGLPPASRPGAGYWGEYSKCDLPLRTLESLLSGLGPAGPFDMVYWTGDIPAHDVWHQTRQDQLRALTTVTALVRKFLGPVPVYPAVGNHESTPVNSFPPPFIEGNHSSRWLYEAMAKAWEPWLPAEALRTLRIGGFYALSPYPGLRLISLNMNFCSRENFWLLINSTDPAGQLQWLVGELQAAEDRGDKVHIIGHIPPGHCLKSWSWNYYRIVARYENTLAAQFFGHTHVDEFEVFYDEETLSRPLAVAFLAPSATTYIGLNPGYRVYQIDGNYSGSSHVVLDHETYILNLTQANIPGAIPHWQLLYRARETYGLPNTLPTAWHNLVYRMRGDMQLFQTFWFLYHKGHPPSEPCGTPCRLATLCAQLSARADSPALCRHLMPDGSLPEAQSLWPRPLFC

[3] = biological target: T2, ASM (Homo sapiens, UniProt P17405); assay: ASM activity after leupeptin preincubation in PS1 fibroblasts; type: cell-based; settings: 25 µM leupeptin 24 h, then compound 30 min
T2 sequence (P17405 47-631): T1 sequence (P17405 47-631)

[4] = test system: PS1 fibroblasts; assay: Ceramide production in PS1 fibroblasts; type: cell-based, human; settings: 10 μM, 30 min
[5] = test system: APP/PS1 mice; type: in vivo, mouse; settings: p.o., KARI 201 1, 5, or 10 mg⋅kg−1, AMI 100 mg⋅kg−1
[6] = biological target: T2, ASM; assay: ASM activity in AD patient; type: cell-based; settings: PS1 fibroblasts, 10 μM, 30 min

## CN(C)CCC=C1c2ccccc2CCc2ccccc21 [AMI, amitriptyline]
[1]
  accumulation of phospholipids (LipidTOX MFI): induced accumulation of phospholipids
[2]
  secretory ASM activity: did not inhibit ASM activity
[3]
  effect of leupeptin preincubation on ASM inhibition: prevented ASM inhibition
[4]
  ceramide production: decreased
[5]
  Survival: not affected
  body weight: not affected
[6]
  ASM activity in cell lysates: efficiently inhibited

Reference: PMC8784098 (Proceedings of the National Academy of Sciences of the …, 2022)
